Patent US20230126298A1, “DEUYERATED TRYPTAMINE DERIVATIVE FORMULATIONS AND METHODS OF USE” (priority 2020, published 2023)

Experiments:
[1] = PK study in rats, cassette dosing, oral gavage or catheter; type: in vivo; conditions: rat, 5 mg/kg, % change vs. non-deuterated material; for Deuterium kinetic isotope effect (% change) F: bioavailability
Method: (§1) The key PK parameters (presented as a % change vs. non-deuterated materials) are presented in Table 3 to include half-life (T1/2), area under the curve (AUC), bioavailability (F) and blood-to-plasma ration (BPR). Pharmacokinetics of the deuterated tryptamines was studied in rats. In a typical experiment, run as a cassette dosing, two groups of 5 Wistar female rats (200-250 g) with surgically inserted jugular vein catheter (Charles River, Andover, Mass.) were fasted for 12 h and then administered 5 mg/kg of the deuterated and 5 mg/kg of the related non-deuterated analog, by oral gavage or via a catheter for each group. At time points 0, 15, 30, 60 min, and 2, 4, 8, and 24 h, the resulting plasma was analyzed for the parent molecule using LC/MS spectroscopy. Two separate groups of 5 animals were used for determining blood-to-plasma ratio (BPR). Each group was sacrificed at time points 15 and 30 min, respectively, and the concentration of the parent drug was determined in the […] and plasma by LC/MS spectroscopy.

[2] = Blood-to-plasma ratio (BPR), drug in brain and plasma of rats; type: in vivo; conditions: rat, % change vs. non-deuterated material
Method: as §1

[3] = Metabolic stability in rat liver microsomes (RLM); conditions: for RLM, metabolized or not (R / NR): last time point 120 min; for RLM, % (half-life as % vs. the related nondeuterated compound): values in square brackets are within 10% (assay's accuracy), no deuteration effect; for metabolic stability in RLM, in words: deuterated vs. comparator
hrMAO-A = target: T1, hrMAO-A (Homo sapiens, UniProt P21397); assay: Metabolic stability in the presence of hrMAO-A; type: in vitro ADME; conditions: for MAO, metabolized or not (R / NR): last time point 120 min
T1 construct: purchased XenoTech Lot #8213001
T1 sequence (P21397 1-527): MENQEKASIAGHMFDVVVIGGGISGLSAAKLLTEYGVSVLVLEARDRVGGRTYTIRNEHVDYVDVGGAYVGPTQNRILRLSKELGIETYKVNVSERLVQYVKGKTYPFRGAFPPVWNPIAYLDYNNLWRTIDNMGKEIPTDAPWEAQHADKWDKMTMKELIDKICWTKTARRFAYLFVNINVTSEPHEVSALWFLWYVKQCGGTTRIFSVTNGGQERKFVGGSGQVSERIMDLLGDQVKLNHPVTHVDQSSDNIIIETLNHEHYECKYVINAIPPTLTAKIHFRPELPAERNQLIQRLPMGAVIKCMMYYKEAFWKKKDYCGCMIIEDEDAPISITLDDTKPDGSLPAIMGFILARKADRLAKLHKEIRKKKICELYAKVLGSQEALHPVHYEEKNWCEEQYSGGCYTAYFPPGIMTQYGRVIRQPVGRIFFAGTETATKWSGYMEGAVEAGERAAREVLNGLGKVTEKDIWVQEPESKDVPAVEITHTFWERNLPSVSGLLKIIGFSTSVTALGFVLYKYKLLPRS
Method: The reaction mixture was prepared as described below. The co-dosed TAs were added into the reaction mixture at a final concentration of 1 microM each. The positive control, kynuramine (25 microM), was run simultaneously with the TAs in a separate reaction. The reaction mixture (without TAs or kynuramine) was equilibrated in a shaking water bath at 37° C. for 5 minutes. The reaction was initiated by the addition of the TAs or kynuramine, and the mixture was incubated in a shaking water bath at 37° C. Aliquots (100 microL) of the TA reaction mixture were withdrawn at 0, 5, 10, 20, 30, 60, and 120 minutes. Aliquots (100 microL) of the positive control reaction mixture were withdrawn at 0 and 30 minutes. TA and kynuramine samples were immediately combined with 100 microL of ice-cold 100% MeCN containing 0.1% formic acid and IS to terminate the reaction. The samples were then mixed and centrifuged to precipitate proteins. All TA samples were assayed by LC-HRAMS. The PARR (analyte to IS) at each time point was compared to the PARR at time 0 to determine the percent remaining at each time point. Reaction composition: hrMAO 0.02 mg/mL; Potassium Phosphate, pH 7.4 100 mM; Magnesium Chloride 5 mM; Test Articles (each) 1 microM.

[4] = oral; cited from earlier work

## [2H]C([2H])(Cc1c[nH]c2ccc(OC)cc12)N(C)C [5-MeO-DMT-α,α-d2]
[1]
  Deuterium kinetic isotope effect (% change) AUC: 60%
  Deuterium kinetic isotope effect (% change) T1/2: 30%
  Deuterium kinetic isotope effect (% change) F: 200%
[2]
  Deuterium kinetic isotope effect (% change) BPR, 15 min: 120%
  Deuterium kinetic isotope effect (% change) BPR, 30 min: 180%

## C=CCNCCc1c[nH]c2ccccc12
[3]; RLM
  RLM, metabolized or not (R / NR): R

## [2H]C([2H])(NCC)C([2H])([2H])c1c[nH]c2cccc(O)c12
[3]; RLM
  RLM, % (half-life as % vs. the related nondeuterated compound): [94] %

## CCN(C)CCc1c[nH]c2ccc(O)cc12 [reference compound]
hrMAO-A; MAO-A
  MAO, metabolized or not (R / NR): R
[3]; RLM
  RLM, metabolized or not (R / NR): R

## [2H]C([2H])([2H])C([2H])([2H])NC([2H])([2H])C([2H])([2H])c1c[nH]c2cccc(O)c12
[3]; RLM
  RLM, % (half-life as % vs. the related nondeuterated compound): [93] %

## [2H]C([2H])(Cc1c[nH]c2ccccc12)N(C)C [DMT-d2]
hrMAO-A; hrMAO-A, Table 3
  % Remaining of Initial 0 min: 100%
  Half-life: > 2 h
hrMAO-A; hrMAO-A, 60 min, Table 3
  % Remaining of Initial 60 min: 76.0%
[3]; RLM, Table 2
  % Remaining of Initial 0 min: 100%
[3]; RLM, 60 min, Table 2
  % Remaining of Initial 60 min: 32.0%

## [2H]C([2H])(Cc1c[nH]c2cccc(O)c12)N(C)C [PI-α,α-d2]
[1]
  Deuterium kinetic isotope effect (% change) AUC: 75%
  Deuterium kinetic isotope effect (% change) T1/2: 50%
  Deuterium kinetic isotope effect (% change) F: 45%
[2]
  Deuterium kinetic isotope effect (% change) BPR, 15 min: 100%
  Deuterium kinetic isotope effect (% change) BPR, 30 min: 150%

## [2H]C([2H])(c1c[nH]c2ccc(OC)cc12)C([2H])([2H])N(CC)CC
[3]; RLM
  RLM, % (half-life as % vs. the related nondeuterated compound): [95] %

## CCN(C)CCc1c[nH]c2cccc(OC)c12 [reference compound]
hrMAO-A; MAO-A
  MAO, metabolized or not (R / NR): R
[3]; RLM
  RLM, metabolized or not (R / NR): R

## CCN(CC)CCc1c[nH]c2ccccc12
[3]; RLM
  RLM, metabolized or not (R / NR): R

## CNCCc1c[nH]c2ccccc12 [reference compound]
hrMAO-A; MAO-A
  MAO, metabolized or not (R / NR): R
[3]; RLM
  RLM, metabolized or not (R / NR): R

## [2H]C([2H])(c1c[nH]c2ccccc12)C([2H])([2H])N(C)C [DMT-d4]
hrMAO-A; hrMAO-A, Table 3
  % Remaining of Initial 0 min: 100%
  Half-life: > 2 h
[3]; RLM, Table 2
  % Remaining of Initial 0 min: 100%

## CC(C)NCCc1c[nH]c2cccc(O)c12
[3]; RLM
  RLM, metabolized or not (R / NR): R

## CCN(CC)CCc1c[nH]c2ccc(OC)cc12
[3]; RLM
  RLM, metabolized or not (R / NR): R

## CN(C)CCc1c[nH]c2ccc(O)cc12 [reference compound]
hrMAO-A; MAO-A
  MAO, metabolized or not (R / NR): R
[3]; RLM
  RLM, metabolized or not (R / NR): R

## C=CCN(CC=C)CCc1c[nH]c2ccccc12
[3]; RLM
  RLM, metabolized or not (R / NR): R

## CC(C)NCCc1c[nH]c2ccccc12
[3]; RLM
  RLM, metabolized or not (R / NR): R

## CNCCc1c[nH]c2cccc(O)c12 [reference compound]
hrMAO-A; MAO-A
  MAO, metabolized or not (R / NR): R
[3]; RLM
  RLM, metabolized or not (R / NR): R

## [2H]C([2H])(c1c[nH]c2cccc(OC)c12)C([2H])([2H])N(C)C
[3]; RLM
  RLM, % (half-life as % vs. the related nondeuterated compound): 190%

## [2H]C([2H])(NC)C([2H])([2H])c1c[nH]c2cccc(O)c12
[3]; RLM
  RLM, % (half-life as % vs. the related nondeuterated compound): 160%

## CCNCCc1c[nH]c2ccccc12 [reference compound]
hrMAO-A; MAO-A
  MAO, metabolized or not (R / NR): R
[3]; RLM
  RLM, metabolized or not (R / NR): R

## [2H]C([2H])(c1c[nH]c2cccc(O)c12)C([2H])([2H])N(C(C)C)C(C)C
[3]; RLM
  RLM, % (half-life as % vs. the related nondeuterated compound): [97] %

## CCN(CC)CCc1c[nH]c2cccc(OC)c12
[3]; RLM
  RLM, metabolized or not (R / NR): R

## CCN(C)CCc1c[nH]c2ccccc12 [reference compound]
hrMAO-A; MAO-A
  MAO, metabolized or not (R / NR): R
[3]; RLM
  RLM, metabolized or not (R / NR): R

## CCN(CC)CCc1c[nH]c2ccc(O)cc12
[3]; RLM
  RLM, metabolized or not (R / NR): R

## CCNCCc1c[nH]c2cccc(O)c12
[3]; RLM
  RLM, metabolized or not (R / NR): R

## COc1cccc2[nH]cc(CCN(C)C)c12 [reference compound]
hrMAO-A; MAO-A
  MAO, metabolized or not (R / NR): R
[3]; RLM
  RLM, metabolized or not (R / NR): R

## [2H]C([2H])(NCC)C([2H])([2H])c1c[nH]c2ccccc12
hrMAO-A; MAO-A, values in square brackets are within 10% (assay's accuracy), no deuteration effect
  MAO, % (half-life as % vs. the related nondeuterated compound): 140%

## [2H]C([2H])([2H])N(C([2H])([2H])[2H])C([2H])([2H])C([2H])([2H])c1c[nH]c2ccccc12 [DMT-d10]
hrMAO-A
  metabolism in the MAO-A enzymatic assay, in words: superiority
hrMAO-A; hrMAO-A, Table 3
  % Remaining of Initial 0 min: 100%
  Half-life: > 2 h
hrMAO-A; hrMAO-A, Table 5 (d8 and d10 analogs)
  % Remaining of Initial 0 min: 100.0%
hrMAO-A; hrMAO-A, 5 min, Table 5
  % Remaining of Initial 5 min: 99.0%
hrMAO-A; hrMAO-A, Table 5
  Half-life: > 2 h
[3]; RLM, Table 2
  % Remaining of Initial 0 min: 100%
[3]; RLM, Table 4 (d8 and d10 analogs)
  % Remaining of Initial 0 min: 100%
[3]; RLM, 10 min, Table 4
  % Remaining of Initial 10 min: 56.0%
[3]
  metabolic stability in RLM, in words: Further enhancement of metabolic stability

## CN(C)CCc1c[nH]c2ccccc12 [DMT, reference compound]
hrMAO-A; hrMAO-A, Table 3
  % Remaining of Initial 0 min: 100%
  Half-life: 0.453 h
[3]; RLM, Table 2
  % Remaining of Initial 0 min: 100%
[3]; RLM, 20 min, Table 2
  % Remaining of Initial 20 min: 41.0%

## [2H]c1ccc2[nH]c([2H])c(CCN([2H])CC)c2c1O
[3]; RLM
  RLM, metabolized or not (R / NR): R

## CC(C)N(CCc1c[nH]c2cccc(O)c12)C(C)C
[3]; RLM
  RLM, metabolized or not (R / NR): R

## COc1cc(CCNCc2ccccc2OC)c(OC)cc1Cl [2C-C-NBOMe, 2-(4-Chloro-2,5-dimethoxyphenyl)-N-[(2-methoxyphenyl)methyl]ethan-1-amine]
[4]
  orally active dose: ≥ 25 µg

## CCN(C)CCc1c[nH]c2ccc(OC)cc12 [reference compound]
hrMAO-A; MAO-A
  MAO, metabolized or not (R / NR): R
[3]; RLM
  RLM, metabolized or not (R / NR): R

## COc1ccc2[nH]cc(CCN(C)C)c2c1 [reference compound]
hrMAO-A; MAO-A
  MAO, metabolized or not (R / NR): R
[3]; RLM
  RLM, metabolized or not (R / NR): R

## [2H]c1[nH]c2c([2H])c([2H])c([2H])c([2H])c2c1C([2H])([2H])C([2H])([2H])N(C([2H])([2H])[2H])C([2H])([2H])[2H] [DMT-d15]
[3]
  metabolic stability in RLM, in words: no improvement in half-life
